The values that follow come from PubChem BioAssay (NCI).

Common to all, as to test: NCI-60 cell line screen, 48 h
Experiment [1] deals with 786-0 renal.
Experiment [2] relates to ACHN renal.
In experiment [3] the test system is CAKI-1 renal.
Experiment [4] has as its system COLO 205 colon.
Experiment [5] deals with MDA-MB-435.
Experiment [6] has as its system NCI-H460 lung.
Experiment [7] relates to OVCAR-3 ovarian.
Experiment [8] concerns OVCAR-5 ovarian.
The test system of experiment [9] is SK-MEL-5 melanoma.
Experiment [10] concerns SW-620 colon.

Where “and” joins values, the source holds several entries; their conditions need not be identical. Identical values can stand only once.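 Grown in 96-well plates, cells were treated for 48 hours with each compound at five concentrations. Insufficient inhibition: endpoint recorded as highest concentration tested. Here, GI50 denotes the concentration required for 50% inhibition of growth. TGI: total growth inhibition.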

Take `CCNC(=O)/C(=C/c1ccc(OC)cc1)c1cc(OC)c(OC)c(OC)c1`: the TGI was over 100 µM in experiment [1]; over 100 µM in experiment [2]; over 100 µM in experiment [3]; 24.8 µM in experiment [4]; over 20.5 µM in experiment [5]; 57 µM in [6]. Besides, the TGI was 15 µM in [7], over 100 µM in [8], over 53.9 µM in experiment [9] and over 100 µM in experiment [10].

Take `CCCCCCCCCCNC(=O)CI`: the GI50 was 1.8 µM in [1]; 1.65 µM in experiment [2]; 1.56 µM in [3]; 2.38 µM in [4]; 1.97 µM in [5]; 3.05 µM in experiment [6]. Also, the GI50 was 1.87 µM in [7], 3.39 µM in experiment [8], 1.96 µM in experiment [9] and 1.77 µM in experiment [10]. Besides, the TGI in [1] worked out at 3.37 µM; in [2], 3.08 µM; in [3], 3.55 µM; in experiment [4], 6.01 µM; in [5], 4.51 µM; in [6], 9.66 µM. Besides, the TGI is 3.44 µM in experiment [7], 10.4 µM in [8], 4.72 µM in experiment [9] and 3.65 µM in experiment [10].

Turning to `N[C@H](CCC(=O)N[C@@H](Cc1c[nH]c2ccccc12)C(=O)O)C(=O)O`, the GI50 in experiment [1], in [2], in [3], in experiment [4], in experiment [5] and in experiment [6] was over 100 µM in each case. Moreover, the GI50 in experiment [7], in experiment [8], in experiment [9] and in experiment [10] was over 100 µM in each case. Further, the TGI in experiment [1], in experiment [2], in [3], in experiment [4], in experiment [5] and in experiment [6] was over 100 µM each time. In addition, the TGI in [7], in [8], in [9] and in experiment [10] was over 100 µM in each case.

With `COc1ccc(/C(C)=C(\c2ccc(OCCN3CCCCCC3)cc2)c2ccc(OC(=O)C3CCCCC3)cc2)cc1`, the GI50 is 1.11 µM in experiment [1]; 1.73 µM in [2]; 0.705 µM in [3]; 0.626 µM in experiment [4]; 1.57 µM in experiment [5]; 0.592 µM in experiment [6]. The GI50 was 1.16 µM in experiment [7], 1.41 µM in [8], 1.08 µM in experiment [9] and 0.948 µM in [10]. In addition, the TGI turned out to be 3.06 µM in experiment [1]; 3.56 µM in [2]; 2.61 µM in experiment [3]; 4.06 µM in [4]; 3.38 µM in experiment [5]; 2.1 µM in experiment [6]. The TGI in experiment [7] is 3.13 µM; in experiment [8] it was 3.44 µM; in experiment [9], 3 µM; in [10] it was 3.15 µM.

Turning to `COc1ccc(-c2ccc3c(N4CCOC[C@@H]4C)nc(N4CCOC[C@@H]4C)nc3n2)cc1CO`, the GI50 was 0.00494 µM and 0.0416 µM in experiment [1]; 0.00495 µM and 0.0209 µM in experiment [2]; 0.00473 µM and 0.0302 µM in [3]; 0.00502 µM and 0.0474 µM in [4]; 0.00531 µM and 0.0227 µM in experiment [5]; 0.00417 µM and 0.0101 µM in experiment [6]. For the same compound, the GI50 in experiment [7] is 0.00504 µM and 0.0334 µM; in experiment [8], 0.00607 µM and 0.0331 µM; in experiment [9] it was 0.00471 µM and 0.0264 µM; in [10], 0.0078 µM and 0.0537 µM. Besides, the TGI in experiment [1] was over 45.1 µM; in experiment [2], over 100 µM; in [3], 5.15 µM; in [5], 0.0557 µM and 0.263 µM; in experiment [6] it was over 100 µM; in experiment [7], over 34.6 µM. Moreover, the TGI is 60.3 µM in [8] and over 100 µM in experiment [10].

On to `CCc1ccc2c(c1)C(=O)c1c-2n(CCCN=[N+]=[N-])c(=O)c2cc([N+](=O)[O-])ccc12`, for which the GI50 in experiment [1], in experiment [2], in [3], in [4], in experiment [5] and in experiment [6] was over 50 µM each time. The GI50 in experiment [7], in experiment [8], in [9] and in [10] was over 50 µM in each case. Further, the TGI in experiment [1], in [2], in experiment [3], in experiment [4], in experiment [5] and in experiment [6] was over 50 µM in each case. The TGI in experiment [7], in [8], in experiment [9] and in experiment [10] was over 50 µM in each case.

As for `CCCC(=O)C1=C(O)C(Cc2c(O)c(C)c(O)c(C(=O)CCC)c2O)=C(O)C(C)(C)C1=O`, the TGI in experiment [1] was over 50 µM; in [2] it was over 50 µM; in [3], over 50 µM; in experiment [4] it was over 50 µM; in [5], over 50 µM; in [6], 43.1 µM. The TGI was over 50 µM in experiment [7], 33.9 µM in experiment [8], over 50 µM in experiment [9] and over 50 µM in [10].

Turning to `COc1ccc(-c2nn(-c3cccc(Cl)c3)cc2-c2cc(-c3ccccc3)[nH]c(=O)c2C#N)cc1`, the GI50 in experiment [1] was 1.6 µM; in [2], 1.83 µM; in experiment [3], 1.3 µM; in experiment [4] it was 7.4 µM; in [5], over 50 µM; in experiment [6] it was 2.35 µM. For the same compound, the GI50 is 2.84 µM in [7], 32.3 µM in experiment [8], 5.76 µM in experiment [9] and 9.23 µM in [10]. The TGI is 7.25 µM in experiment [1]; 10.7 µM in [2]; 6.09 µM in experiment [3]; over 50 µM in [4]; over 50 µM in experiment [5]; over 50 µM in experiment [6]. Further, the TGI is 16.8 µM in [7], over 50 µM in [8], over 50 µM in experiment [9] and over 50 µM in experiment [10].

`NCCNCC1CCNCC1`: the TGI in [1], in [2], in [3], in experiment [4], in experiment [5] and in experiment [6] was over 100 µM in each case. The TGI in [7], in experiment [8], in experiment [9] and in [10] was over 100 µM throughout.

On to `COc1cc2c(Nc3cc(Cl)c(OC)c(Cl)c3)c(C#N)cnc2cc1OCCCN1CCN(C)CC1`, for which the GI50 in experiment [1] was 1.73 µM; in [2], 0.239 µM; in [3], 0.606 µM; in [4], 2.02 µM; in experiment [5] it was 1.24 µM; in [6], 1.91 µM. Further, the GI50 in experiment [7] was 1.65 µM; in experiment [8], 1.56 µM; in [9] it was 1.37 µM; in experiment [10], 2.18 µM. Further, the TGI in experiment [1] was found to be 4.54 µM; in experiment [2] it was 3.58 µM; in experiment [3], 15.1 µM; in experiment [4], 3.79 µM; in experiment [5], 3.2 µM; in experiment [6], 8.47 µM. Further, the TGI in experiment [7] came out at 4.49 µM; in experiment [8], 11.7 µM; in experiment [9], 2.71 µM; in [10], 6.03 µM.

Turning to `Nc1cc(Br)c(-c2nnc(CCC(=O)c3nc4ccccc4[nH]3)o2)c(Br)c1`, the GI50 in experiment [1] was 21 µM; in experiment [2], 48 µM; in experiment [3], 19.8 µM; in [4], 11.8 µM; in [5], 1.56 µM; in [6] it was 3.99 µM. In addition, the GI50 was 2.6 µM in experiment [7], 29.4 µM in experiment [8], 14.2 µM in experiment [9] and 3.28 µM in experiment [10]. In addition, the TGI in experiment [1] is 61.7 µM; in experiment [2], over 100 µM; in [3] it was over 100 µM; in [4], 30.8 µM; in [5], 3.71 µM; in [6] it was 20.1 µM. The TGI was 6.98 µM in experiment [7], over 100 µM in [8], over 100 µM in experiment [9] and over 100 µM in experiment [10].

As to `CC1(C)CN=C(NN=C(/C=C/c2ccc(C(F)(F)F)cc2)/C=C/c2ccc(C(F)(F)F)cc2)NC1`, the GI50 in experiment [1] is 1.78 µM; in experiment [2] it was 1.19 µM; in experiment [3], 1.09 µM; in experiment [4] it was 1.35 µM; in experiment [5], 1.59 µM; in experiment [6], 1.47 µM. For the same compound, the GI50 was 1.67 µM in experiment [7], 1.32 µM in [8], 1.6 µM in experiment [9] and 1.14 µM in experiment [10]. In addition, the TGI in experiment [1] turned out to be 3.42 µM; in experiment [2], 2.48 µM; in [3], 2.37 µM; in experiment [4], 2.85 µM; in [5], 3 µM; in experiment [6], 3.2 µM. Besides, the TGI in [7] worked out at 3.05 µM; in experiment [8], 2.68 µM; in [9], 3.11 µM; in experiment [10] it was 2.66 µM.

As to `COc1cc(/C=C\c2cc(OC)c(OC)c(OC)c2)cc(N/C=C\C(=O)c2c[nH]c3ccccc23)c1OC`, the GI50 was 2.04 µM in [1]; 1.75 µM in experiment [2]; 1.58 µM in experiment [3]; 1.51 µM in experiment [4]; 2.43 µM in experiment [5]; 5.6 µM in [6]. Also, the GI50 in [7] was 1.72 µM; in experiment [8] it was 2.45 µM; in experiment [9], 3.14 µM; in [10], 1.63 µM. Also, the TGI in [1] was determined as 4.14 µM; in experiment [2], 3.39 µM; in experiment [3], 2.95 µM; in [4], 3.2 µM; in experiment [5], 8.04 µM; in experiment [6], 27.1 µM. The TGI in experiment [7] was determined as 3.21 µM; in experiment [8], 7.03 µM; in experiment [9], 12.6 µM; in experiment [10], 3.31 µM.

Consider `O=C(O)c1cccc(COc2ccc([N+](=O)[O-])cc2Cl)c1`, for which the GI50 in experiment [1], in experiment [2], in experiment [3], in experiment [4], in experiment [5] and in experiment [6] was over 100 µM each time. The GI50 was 50.3 µM in experiment [7], over 100 µM in experiment [8], 40.1 µM in experiment [9] and over 100 µM in experiment [10]. The TGI in [1], in experiment [2], in experiment [3], in experiment [4], in experiment [5] and in experiment [6] was over 100 µM each time. In addition, the TGI in experiment [7], in experiment [8], in experiment [9] and in experiment [10] was over 100 µM each time.

Turning to `CCC/C=C/C=C/C1CC(O)C(O)C(=O)C1CO` (stereo not drawn), the TGI in experiment [1], in [2], in [3], in experiment [4], in experiment [5] and in experiment [6] was over 100 µM in each case. The TGI in experiment [7], in experiment [8], in experiment [9] and in experiment [10] was over 100 µM throughout.

`Nc1ccccc1O.O.O=C(O)C1[O][Sb][O]C1C(=O)O` (stereo not drawn): the GI50 is 10.5 µM in [1]; 16.1 µM in [2]; 3.78 µM in [3]; 18.7 µM in [4]; 16.5 µM in [5]; 21.6 µM in experiment [6]. Further, the GI50 is 13.4 µM in experiment [7], 18.4 µM in [8], 1.77 µM in [9] and 4.48 µM in experiment [10]. In addition, the TGI is 26 µM in experiment [1]; 29.8 µM in experiment [2]; 12.3 µM in experiment [3]; 35.3 µM in experiment [4]; 30.8 µM in experiment [5]; 58.5 µM in experiment [6]. Further, the TGI came to 28.6 µM in experiment [7], 38.5 µM in experiment [8], 3.99 µM in [9] and 31.2 µM in [10].
